Some test systems named below: MDA-N; MOLT-4 leukemia; RPMI-8226 leukemia; MCF7 breast; HCC-2998 colon; BT-549 breast; NCI-H522 lung; T-47D breast; M14 melanoma; SR leukemia; DU-145 prostate; RXF 393 renal; NCI-H226 lung; KM20L2 colon; DMS 273 small cell lung.
Holding throughout (experiment): NCI tumour cell line growth inhibition, 48 h

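Where inhibition never reached the appropriate level, the endpoint shown equals the highest concentration tested. Otherwise, values were interpolated linearly from a five-concentration, 48-hour dose response in 96-well plates. TGI: concentration producing complete growth inhibition.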

Consider `COc1ccc2c(C(=O)c3cn(CCN4CCOCC4)c4ccccc34)cccc2c1`, for which the TGI with MDA-N is more than 100 µM; in the test with MOLT-4 leukemia it was 64.4 µM; in the test on RPMI-8226 leukemia, more than 100 µM; with MCF7 breast, more than 80.2 µM; with HCC-2998 colon, more than 100 µM; in the test with BT-549 breast, more than 100 µM. Besides, the TGI was more than 100 µM in the test on NCI-H522 lung; more than 100 µM in the test with T-47D breast; more than 87.5 µM in the test with M14 melanoma; more than 100 µM in the test on SR leukemia; more than 100 µM in the test with DU-145 prostate; more than 100 µM in the test on RXF 393 renal. The TGI with NCI-H226 lung is more than 100 µM.

Regarding `COc1ccc(C2=C3SC=c4ccccc4=C3ON=C2c2ccccc2)cc1`, the TGI in the test on MOLT-4 leukemia, in the test with RPMI-8226 leukemia, with MCF7 breast, in the test on HCC-2998 colon, in the test on BT-549 breast and in the test with NCI-H522 lung was more than 100 µM each time. Moreover, the TGI with T-47D breast, in the test with M14 melanoma, in the test on SR leukemia, in the test on DU-145 prostate, in the test with RXF 393 renal and in the test on NCI-H226 lung was more than 100 µM throughout.

Consider `CC(=O)O[C@H]1CC[C@@]2(C)C(=CC[C@H]3[C@@H]4C/C(=C\c5ccc(N(C)C)cc5)[C@H](OC(C)=O)[C@@]4(C)CC[C@@H]32)C1`, for which the TGI in the test with MDA-N was 36 µM; in the test on MOLT-4 leukemia it was more than 100 µM; in the test on RPMI-8226 leukemia, more than 100 µM; in the test on MCF7 breast it was 26.6 µM; in the test on BT-549 breast it was 33.4 µM; in the test with T-47D breast it was 76.8 µM. In addition, the TGI is 36 µM with M14 melanoma; more than 100 µM in the test with SR leukemia; more than 100 µM with DU-145 prostate; 42.7 µM in the test on RXF 393 renal; 33.4 µM in the test with NCI-H226 lung.

For the molecule `Oc1cn(-c2ccc(Cl)cc2)nc1-c1n[nH]c(=S)n1-c1ccccc1`, the TGI in the test on MOLT-4 leukemia is more than 100 µM; in the test with RPMI-8226 leukemia, more than 100 µM; in the test with MCF7 breast it was 21.9 µM; with NCI-H522 lung, 19.5 µM; with T-47D breast it was more than 100 µM; in the test with M14 melanoma it was 20.4 µM. The TGI in the test with SR leukemia was 94 µM; with DU-145 prostate, more than 100 µM; with RXF 393 renal, 36.9 µM; with NCI-H226 lung, 59.8 µM.

Consider `COc1ccc(-c2nc3ncccn3c2-c2ccc(SC)cc2)cc1`, for which the TGI with MOLT-4 leukemia was more than 100 µM; with RPMI-8226 leukemia it was 29.2 µM; with BT-549 breast, 46.5 µM; with NCI-H522 lung, 0.502 µM; in the test on M14 melanoma, 12.2 µM; in the test on SR leukemia, 10.6 µM.

For the molecule `CC(=O)NNc1nc(-c2ccc([N+](=O)[O-])cc2)c(C#N)c(=O)n1C`, the TGI is more than 100 µM with MDA-N; more than 100 µM in the test on MOLT-4 leukemia; more than 100 µM in the test on RPMI-8226 leukemia; 97.3 µM with MCF7 breast; 23 µM in the test with BT-549 breast; 45.6 µM in the test on NCI-H522 lung. Besides, the TGI in the test on T-47D breast, in the test on M14 melanoma, with SR leukemia, with DU-145 prostate and in the test with RXF 393 renal was more than 100 µM in each case.

For `CN(C)C(=O)/C=C/c1c[nH]c(=O)[nH]c1=O`, the TGI is more than 500 µM in the test on MOLT-4 leukemia; more than 316 µM in the test with RPMI-8226 leukemia; more than 500 µM in the test on MCF7 breast; more than 500 µM in the test with HCC-2998 colon; more than 500 µM with KM20L2 colon; more than 500 µM with DMS 273 small cell lung. Besides, the TGI in the test with NCI-H522 lung, with RXF 393 renal and in the test with NCI-H226 lung was more than 500 µM in each case.

As for `Cc1c2cccc-2c(OCCO)cc2c3ccccc3n(C)c12`, the TGI with MDA-N was found to be 16.1 µM; in the test with MOLT-4 leukemia, 34.6 µM; with MCF7 breast it was 20.8 µM; with HCC-2998 colon it was 14.6 µM; in the test on BT-549 breast, 13.4 µM; with NCI-H522 lung, 4.8 µM. The TGI in the test on T-47D breast is more than 100 µM; in the test on M14 melanoma, 12.2 µM; in the test with SR leukemia it was 6.12 µM; in the test with DU-145 prostate, 20.6 µM; with RXF 393 renal, more than 100 µM; in the test with NCI-H226 lung, 24.2 µM.

With `C[C@H]1C(=O)O[C@@H]2CCN3CC=C(COC(=O)[C@](C)(O)[C@@]1(C)O)[C@H]23`, the TGI with MDA-N, in the test on MOLT-4 leukemia, in the test on RPMI-8226 leukemia, with MCF7 breast, in the test on HCC-2998 colon and with BT-549 breast was more than 100 µM each time. The TGI with NCI-H522 lung, with T-47D breast, with M14 melanoma, in the test with DU-145 prostate and with NCI-H226 lung was more than 100 µM in each case.

For `COc1cc(/C=C/C(=O)Oc2ccc(NC(C)=O)cc2)ccc1C(=O)O/C=C/c1ccccc1`, the TGI in the test on MOLT-4 leukemia, with RPMI-8226 leukemia, with MCF7 breast, in the test with HCC-2998 colon, with KM20L2 colon and in the test on DMS 273 small cell lung was more than 100 µM throughout. Besides, the TGI in the test with NCI-H522 lung, with RXF 393 renal and in the test with NCI-H226 lung was more than 100 µM in each case.

Consider `COc1ccc2c(c1)CCCN2CCCCCCCCCCN(CCC(C)C)CCC(C)C`, for which the TGI turned out to be 22.6 µM in the test with MOLT-4 leukemia; 6.18 µM in the test with RPMI-8226 leukemia; 19.2 µM with HCC-2998 colon; 23.1 µM in the test on KM20L2 colon; 23.2 µM in the test with DMS 273 small cell lung; 5.68 µM in the test with NCI-H522 lung. Moreover, the TGI in the test on M14 melanoma turned out to be 27.2 µM; in the test with NCI-H226 lung, 31.3 µM.

Take `Nc1n[nH]c(=O)c2c1c(I)cn2C1OC(CO)C(O)C1O` (stereo unspecified): the TGI with MOLT-4 leukemia was 2.29 µM; in the test with RPMI-8226 leukemia, 4.53 µM; with HCC-2998 colon, 7.45 µM; in the test on KM20L2 colon it was more than 100 µM; with DMS 273 small cell lung, 2.63 µM; in the test on M14 melanoma it was 18.8 µM. For the same molecule, the TGI was found to be 1.33 µM in the test on SR leukemia, 3.22 µM in the test on RXF 393 renal and 7.6 µM in the test with NCI-H226 lung.

In the case of `COc1ccc(/C(Cl)=C(\C=O)c2ccc(OC)cc2)cc1`, the TGI in the test with MOLT-4 leukemia, in the test on RPMI-8226 leukemia, in the test on HCC-2998 colon, in the test on KM20L2 colon, with DMS 273 small cell lung and with NCI-H522 lung was more than 100 µM each time. The TGI with M14 melanoma was more than 100 µM; with SR leukemia, 78.8 µM; with RXF 393 renal, more than 100 µM; in the test with NCI-H226 lung, more than 100 µM.

Values taken from PubChem BioAssay (NCI).
